Experimental findings from US7772230B2, “Chroman compound, processes for its preparation, and its pharmaceutical use” (China Pharmaceutical University, priority 2006, dated 2010) are described below.

The target of data set [1] is T1, rapidly delayed rectifier potassium channel current (IKr) (Cavia porcellus, UniProt O08703).
T1 construct: the Guinea pig myocardial cells are separated with enzymolysis; endogenous in cells; host or cells: freshly isolated guinea pig ventricular myocytes
T1 sequence (O08703 1-1294): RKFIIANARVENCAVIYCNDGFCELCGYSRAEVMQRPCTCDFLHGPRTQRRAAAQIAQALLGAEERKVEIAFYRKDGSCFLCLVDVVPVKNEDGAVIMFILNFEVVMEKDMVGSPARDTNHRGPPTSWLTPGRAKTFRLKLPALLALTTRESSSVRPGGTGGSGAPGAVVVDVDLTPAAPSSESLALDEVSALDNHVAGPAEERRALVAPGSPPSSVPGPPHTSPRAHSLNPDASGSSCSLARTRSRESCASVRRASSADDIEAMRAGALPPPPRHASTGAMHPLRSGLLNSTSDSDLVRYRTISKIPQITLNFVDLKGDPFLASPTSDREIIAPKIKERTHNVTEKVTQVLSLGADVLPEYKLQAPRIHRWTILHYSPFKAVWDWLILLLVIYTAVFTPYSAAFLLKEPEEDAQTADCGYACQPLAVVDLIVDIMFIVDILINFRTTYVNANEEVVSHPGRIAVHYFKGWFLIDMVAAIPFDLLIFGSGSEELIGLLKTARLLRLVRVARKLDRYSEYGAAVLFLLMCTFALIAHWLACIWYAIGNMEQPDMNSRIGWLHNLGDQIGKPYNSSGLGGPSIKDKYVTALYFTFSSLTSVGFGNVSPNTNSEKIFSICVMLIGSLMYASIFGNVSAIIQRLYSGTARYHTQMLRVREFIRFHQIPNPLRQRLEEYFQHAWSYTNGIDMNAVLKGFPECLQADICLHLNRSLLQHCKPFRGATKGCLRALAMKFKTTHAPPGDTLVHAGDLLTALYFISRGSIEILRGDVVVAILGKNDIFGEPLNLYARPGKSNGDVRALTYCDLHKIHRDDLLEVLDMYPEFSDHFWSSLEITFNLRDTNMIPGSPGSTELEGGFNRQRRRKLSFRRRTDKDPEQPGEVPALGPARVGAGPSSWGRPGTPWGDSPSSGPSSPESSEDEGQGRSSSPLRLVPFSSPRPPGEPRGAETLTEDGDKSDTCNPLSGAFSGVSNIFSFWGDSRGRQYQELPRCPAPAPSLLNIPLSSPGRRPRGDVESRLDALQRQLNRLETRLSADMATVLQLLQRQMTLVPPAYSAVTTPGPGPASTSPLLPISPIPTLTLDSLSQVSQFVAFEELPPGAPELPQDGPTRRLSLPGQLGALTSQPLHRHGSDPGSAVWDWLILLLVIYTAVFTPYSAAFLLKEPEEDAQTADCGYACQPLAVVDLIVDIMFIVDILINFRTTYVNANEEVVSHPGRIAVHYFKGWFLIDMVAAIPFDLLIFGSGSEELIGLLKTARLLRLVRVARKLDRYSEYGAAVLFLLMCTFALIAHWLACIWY
The experiment in a line: whole cell patch clamp on isolated Guinea pig myocardial cells, IKr. Type of data set: cell-based. The conditions noted are these: Guinea pig ventricular myocytes, current recorded 10 min after administration, 25-30° C. On the procedure:
(§1) Experimental title: using vitro pachynsis myocardial cells of Guinea pig, the activity is determined by the whole cell membrane Patch clamp technology.
(§2) experimental mechanism: the Guinea pig myocardial cells are separated with enzymolysis, and the rapid activation component and the slowly activation component of the delayed commutating current in the cardiac muscle cells are recorded by whole cell membrane Patch clamp. Each compound is added to the perfuse liquid for measuring current after dissolved at least 10 min. The collected data is analyzed in pulse-fit, the IC50 value for IKr and IKs of each compound is calculated.
(§3) animals: Guinea pigs, male, weight 300-400 g.
(§4) solution: calcium free Tyrode's solution
(§5) pole inner solution (mmol/L): KCl 140, MgCl2 1.0, K2-ATP 4.0, EGTA 10, HEPES 5.0, pH=7.2
(§6) Experimental apparatus: Patch clamp magnifier (EPC-10, Germany), inverted microscope (TE-2000U, Nikon, Japan), microelectrode puller (PIP5, Germany), micro-manipulator (PCS-5000, Burleigh, USA).
(§7) Then, the hearts are taken off, their ventricle are cut to smash and incubated in fresh enzyme solution at 37° C., the solution is gently stirred for 5-10 min, pouring off the supernatant fluid, diluted with Tyrode's solution containing CaCl2 1 mmol/L, that is for the first cell stored liquor; with the same operation to obtain the second and the third cell storages. […] The cells are laid for 2 h before use.
(§8) the cell liquor is put into the cell pool, after the cells adhering to the wall, they are perfused with outer liquor of the cells at the rate of 2 ml/min, cells that having calcium resistance and clear transverse striations are to be selected, the poles are moved to the cell surface by tridimensional manipulator. The high resistance block are formed between the pole top and the cell surface by under pressure, and more over using reduced pressure to broking cell membrane, the pole inner liquor can be connected to the cell inner liquor so as to form the whole cell state. After the compensation to the capacitance and series impedance compensation the voltage tongs are recorded. The signal is led by Ag/AgCl pole and magnified by the Patch clamp magnifier, the computer dispenses presetting stimulate pulse by procedure and add to cells, and the electrical signal generated from cells is translated by transducer, and stored in computer. All of the stimulate signal control, electric current, data sampling and analyses are carried out by pulse V8.60. Azimilide is used as positive drugs in the research. Each test compound is dissolved in anhydrous ethanol, diluted to the same concentration by water, and added to outer cell liquor, the top concentration of ethanol is 0.1%.
(§9) Stimulate parameter: the record of IKr and IKS: the back value of the either current is recorded. Using extra-cellular fluid containing 0.1 mmol/L CdCl2 for perfusion, sustaining the voltage at −50 mV, depolarized to 60 mV, keeping for 500 ms, and sustaining the voltage at −50 mV, keeping for 1000 ms, recording IKr; and then binding the voltage at −50 mV for 1000 ms, recording IKs.
(In patch-clamp work, channel activity is measured electrically.)

The target of data set [2] is T2, slowly delayed rectifier potassium channel current (IKs) (Cavia porcellus, UniProt O70344).
T2 construct: the Guinea pig myocardial cells are separated with enzymolysis; endogenous in cells; host or cells: freshly isolated guinea pig ventricular myocytes
T2 sequence (O70344 1-671): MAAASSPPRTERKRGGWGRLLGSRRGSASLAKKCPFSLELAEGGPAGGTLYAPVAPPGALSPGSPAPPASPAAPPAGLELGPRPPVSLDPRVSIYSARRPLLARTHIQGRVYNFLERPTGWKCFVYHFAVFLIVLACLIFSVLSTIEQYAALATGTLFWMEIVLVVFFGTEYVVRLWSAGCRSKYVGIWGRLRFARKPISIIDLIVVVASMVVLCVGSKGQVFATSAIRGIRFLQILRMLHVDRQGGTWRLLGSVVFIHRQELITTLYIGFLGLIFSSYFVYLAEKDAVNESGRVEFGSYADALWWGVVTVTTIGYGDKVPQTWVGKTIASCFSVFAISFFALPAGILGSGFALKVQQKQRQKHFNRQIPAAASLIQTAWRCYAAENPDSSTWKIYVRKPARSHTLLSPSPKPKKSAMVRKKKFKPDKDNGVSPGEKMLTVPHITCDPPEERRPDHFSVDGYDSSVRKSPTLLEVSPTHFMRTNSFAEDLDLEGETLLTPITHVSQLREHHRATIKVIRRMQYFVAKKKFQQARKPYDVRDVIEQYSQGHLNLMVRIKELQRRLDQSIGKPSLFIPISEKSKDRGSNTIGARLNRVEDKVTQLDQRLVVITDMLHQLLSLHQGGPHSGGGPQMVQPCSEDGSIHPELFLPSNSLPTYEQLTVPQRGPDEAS
T2 sequence (P41686 1-245 partner): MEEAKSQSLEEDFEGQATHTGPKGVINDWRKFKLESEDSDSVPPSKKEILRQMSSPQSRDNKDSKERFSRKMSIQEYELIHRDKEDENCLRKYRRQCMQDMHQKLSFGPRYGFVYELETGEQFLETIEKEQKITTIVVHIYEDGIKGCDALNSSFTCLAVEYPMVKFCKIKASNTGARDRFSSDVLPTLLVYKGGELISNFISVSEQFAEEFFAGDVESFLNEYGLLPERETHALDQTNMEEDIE
The experiment in a line: whole cell patch clamp on isolated Guinea pig myocardial cells, IKs. The format is cell-based. The conditions noted are these: Guinea pig ventricular myocytes, current recorded 10 min after administration, 25-30° C. Here is the method:
as §1, §2, §3, §4, §5, §6, §7, §8, §9

As to `CN1CCN(CCCCN2C(=O)CN(/N=C3\CCOc4ccc(Cl)cc43)C2=O)CC1.O=C(O)/C=C/C(=O)O` [Ia example 2, 1-[4-(2,3-dihydro-6-chloro)benzopyran]imino-3-[4-(methyl-1-piperazine)butyl]-2,4-imidazole dione difumarate], the melting point fell in the range of 230 to 232 °C. Further, the half-maximal inhibitory concentration (IC50) in data set [1] is 4700 nM. In data set [2], this compound yielded a half-inhibitory concentration (IC50) of 73 nM.

With `CN1CCN(CCCCN2C(=O)CN(/N=C3\CCOc4ccc(C(N)=O)cc43)C2=O)CC1.O=C(O)/C=C/C(=O)O` [Ia example 4, 1-[4-(2,3-dihydro-6-carbamoyl)benzopyran]imino-3-[4-(methyl-1-piperazine)butyl]-2,4-imidazole dione difumarate], the melting point is 192 to 194 °C. The compound further showed a concentration for half-maximal inhibition (IC50) in data set [1] of 450 nM. Also, the half-inhibitory concentration (IC50) in data set [2] is 330 nM.

For the compound `CCCOc1ccc2c(c1)/C(=N/N1CC(=O)N(CCCCN3CCN(C)CC3)C1=O)CCO2.O=C(O)/C=C/C(=O)O` [Ib example 3, 1-[4-(2,3-dihydro-6-propoxy-)benzopyran]imino-3-[4-(methyl-1-piperazine)butyl]-2,4-imidazole dione difumarate], the melting point lay in the range of 218 to 220 °C. This compound also gave a 50% inhibitory concentration (IC50) in data set [1] of 11800 nM. The compound further yielded an IC50 in data set [2] of 1280 nM.

In the case of `CCCCOc1ccc2c(c1)/C(=N/N1CC(=O)N(CCCCN3CCN(C)CC3)C1=O)CCO2.O=C(O)/C=C/C(=O)O` [Ib example 4, 1-[4-(2,3-dihydro-6-butoxy)benzopyran]imino-3-[4-(methyl-1-piperazine)butyl]-2,4-imidazole dione difumarate], the melting point was in the range of 208 to 210 °C. This compound also showed an IC50 in data set [1] of 180 nM. The IC50 in data set [2] is 22 nM.

Usually IC50 stands for the concentration at which inhibition is half-maximal. Read a high IC50 as lower potency. The term melting point denotes the temperature, or range, at which the solid turns liquid.
